Eight compounds from patent publication US7863269B2, “Imino-imidazo-pyridine derivatives having antithrombotic activity” (sanofi-aventis, priority 2006, dated 2011) can be followed below.

Structures are written as SMILES. pIC50: −log10 of the molar value.

For the assay, the target named is T1, PAR1 (Homo sapiens, UniProt P25116).
T1 construct: endogenous in cells; host or cells: washed platelets from platelet-rich plasma of healthy volunteers
T1 sequence (P25116 22-425): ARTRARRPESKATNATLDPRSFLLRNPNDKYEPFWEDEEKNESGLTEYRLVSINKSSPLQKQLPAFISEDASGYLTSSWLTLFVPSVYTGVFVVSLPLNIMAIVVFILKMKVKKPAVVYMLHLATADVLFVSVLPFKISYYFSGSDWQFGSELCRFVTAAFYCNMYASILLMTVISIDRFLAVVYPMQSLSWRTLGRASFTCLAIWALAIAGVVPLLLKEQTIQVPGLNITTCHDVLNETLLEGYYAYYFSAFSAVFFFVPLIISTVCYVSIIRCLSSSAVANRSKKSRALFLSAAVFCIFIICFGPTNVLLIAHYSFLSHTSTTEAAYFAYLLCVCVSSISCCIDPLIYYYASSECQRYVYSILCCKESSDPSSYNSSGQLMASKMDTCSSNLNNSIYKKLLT
Kind of assay: Inhibition of PAR1-mediated platelet aggregation induced by TRAP (96-well format). Format: cell-based. As to conditions: washed platelets from blood of healthy volunteers; agonist TRAP (thrombin-receptor activating peptide) solution 70-100 μM; AUC at 650 nm, 37° C., 20 minutes. The protocol:
PAR 1 determination method: Inhibition of PAR1-mediated platelet aggregation The pharmacological testing of the substances was carried out in the platelet aggregation induced by TRAP (thrombin-receptor activating peptide) in a 96-well format. To this end, blood from healthy volunteers was taken in 20 ml syringes into which 2 ml of 3.13% strength sodium citrate solution was initially introduced. After a 20-minute centrifugation at 150×g, the platelet-rich plasma (PRP) was separated off and treated with 1 μl of PGE1 solution (500 μg/ml in ethanol)/ml of PRP. After incubation at RT for 5 minutes, this was centrifuged at 120×g for 15 minutes in order to remove the leucocytes. The leucocyte-free PRP was transferred to 15 ml PP tubes in 5 ml portions and centrifuged off at 360×g for 15 minutes in order to pellet the platelets. Subsequently, the plasma was decanted and the platelet sediment from 5 ml of PRP was resuspended in 1 ml of Tyrode (120 mM NaCl, 2.6 mM KCl, 12 mM NaHCO3, 0.39 mM NaH2PO4×H2O, 10 mM HEPES, 0.35% BSA, 5.5 mM glucose, pH 7.4) and adjusted with Tyrode to a platelet count of 3×10^5/microliter (μl). 13 ml of this cell suspension were then treated with 866 μl of 10 mM CaCl2 solution and 120 μl thereof per well were pipetted to a 96-well plate, in which 15 μl of the substance to be tested were initially introduced. After incubation in the dark at RT for 30 minutes, 15 μl of a TRAP solution (70-100 μM) were added as the agonist and kinetics were recorded with shaking at 37° C. for 20 minutes in a SpectraMax 340 at 650 nm. The areas under the curves of negative control (Tyrode/DMSO) and positive control (15 μl of agonist/DMSO) were calculated and the difference was defined as the 100% value. The substances to be tested were pipetted as a dilution series in a duplicate determination, likewise the AUC of each substance concentration was determined and the % inhibition of the AUC against the control was calculated. By means of the % inhibition, the IC50 was calculated with the aid of a nonlinear regression analysis according to the 4 parameter equation.
Consider `N=c1n(CC(=O)c2cccc(S(F)(F)(F)(F)F)c2)cc2ccccn12` [Example 2, 2-(3-Iminoimidazo[1,5-a]pyridin-2-yl)-1-(3-pentafluorosulfanylphenyl)ethanone], for which the pIC50 (commonly −log10 of the IC50, conventionally taken in molar units) is 4.89.
`CCOc1cc2cn(CC(=O)c3cc4c(c(C(C)(C)C)c3)OCCN4C)c(=N)n2cc1C(=O)NC` [Example 12, 2-[2-(8-tert-Butyl-4-methyl-3,4-dihydro-2H-benzo[1,4]oxazin-6-yl)-2-oxoethyl]-7-ethoxy-3-imino-2,3-dihydroimidazo[1,5-a]pyridine-6-carboxylic acid methylamide] showed a pIC50 of 7.70.
To `CCOc1ccc2n(c1=O)C(=N)N(CC(=O)c1cc(N3CCOCC3)c(OC)c(C(C)(C)C)c1)C2` [Example 18, 2-[2-(3-tert-Butyl-4-methoxy-5-morpholin-4-ylphenyl)-2-oxoethyl]-6-ethoxy-3-imino-2,3-dihydro-1H-imidazo[1,5-a]pyridin-5-one] belongs 5.02.
To `CC(C)(C)c1cc(C(=O)Cn2cc3cc(C(F)(F)F)ccn3c2=N)cc(C(C)(C)C)c1O` [Example 6b, 1-(3,5-Di-tert-butyl-4-hydroxyphenyl)-2-(3-imino-7-trifluoromethylimidazo[1,5-a]pyridin-2-yl)ethanone] belongs 6.14; to `CCOC(=O)c1cc(OC)n2c(=N)n(CC(=O)c3cc(N4CCOCC4)c(OC)c(C(C)(C)C)c3)cc2c1` [Example 20, Ethyl 2-[2-(3-tert-butyl-4-methoxy-5-morpholin-4-ylphenyl)-2-oxoethyl]-3-imino-5-methoxy-2,3-dihydroimidazo[1,5-a]pyridine-7-carboxylate], 7.15.
To `CC(C)(C)c1cc(C(=O)Cn2c(C3CC3)c3ccccn3c2=N)cc(C(C)(C)C)c1O` [Example 3, 2-(1-Cyclopropyl-3-iminoimidazo[1,5-a]pyridin-2-yl)-1-(3,5-di-tert-butyl-4-hydroxyphenyl)ethanone] belongs 6.07.
On to `CCOc1cc2cn(CC(=O)c3cc(N4CCOCC4)c(OC)c(C(C)(C)C)c3)c(=N)n2cc1C(=O)NC` [Example 19, 2-[2-(3-tert-Butyl-4-methoxy-5-morpholin-4-ylphenyl)-2-oxoethyl]-7-ethoxy-3-imino-2,3-dihydroimidazo[1,5-a]pyridine-6-carboxylic acid Methylamide], for which the pIC50 was 6.05.
In the case of `COC(=O)c1ccc2cn(CC(=O)c3cc(N4CCOCC4)c(OC)c(C(C)(C)C)c3)c(=N)n2c1` [Example 8, Methyl 2-[2-(3-tert-butyl-4-methoxy-5-morpholin-4-ylphenyl)-2-oxoethyl]-3-imino-2,3-dihydroimidazo[1,5-a]pyridine-6-carboxylate] it was 6.29.
